Converted amounts (≈) assume the structure as drawn.
How the values were obtained:
[1] = Drug level in mouse liver microsomes treated with IHVR-04042 assessed as CYP450-mediated compound formation measured at 60 mins; assay type: ADME; conditions: 1 h
[2] = Drug level in human liver microsomes treated with IHVR-04042 assessed as CYP450-mediated compound formation measured at 60 mins; assay type: ADME; conditions: 1 h
[3] = Cytotoxicity against human HuH7 cells assessed as decrease in cell viability after 72 hrs by MTT assay; assay type: functional; conditions: Huh-7, 72 h
[4] = system: Huh-7; assay: Selectivity index, ratio of CC50 for human THLE2 cells to CC50 for human HuH7 cells; assay type: functional
[5] = system: Huh-7; assay: Selectivity index, ratio of CC50 for human PH5CH cells to CC50 for human HuH7 cells; assay type: functional
[6] = Cytotoxicity against human PH5CH cells assessed as decrease in cell viability after 72 hrs by MTT assay; assay type: toxicity, cell-based
[7] = Cytotoxicity against human THLE2 cells assessed as decrease in cell viability after 72 hrs by MTT assay; assay type: toxicity, cell-based; conditions: thle-2, 72 h
[8] = Solubility of the compound in ethyl acetate solution; assay type: physicochemical
[9] = Solubility of the compound in methylene chloride solution; assay type: physicochemical
[10] = Solubility of the compound in ethanol solution; assay type: physicochemical
[11] = Aqueous solubility of the compound at pH 7.4; assay type: physicochemical; conditions: buffer
[12] = Tmax in CD-1 mouse at 2 mg/kg, iv; assay type: ADME, organism-based; conditions: in vivo
[13] = AUClast in CD-1 mouse at 2 mg/kg, iv; assay type: ADME, organism-based; conditions: in vivo
[14] = Aqueous solubility of the compound at pH 4; assay type: physicochemical; conditions: buffer
[15] = Volume of distribution at steady state in CD-1 mouse at 2 mg/kg, iv; assay type: ADME, organism-based; conditions: in vivo, read-out: Vdss
[16] = Drug metabolism in mouse liver microsomes assessed as CYP450-mediated 4-(pyridin-2-yl)-2-(pyrimidin-2-ylamino)thiazole-5-carboxylic acid formation measured at 60 mins; assay type: ADME; conditions: 1 h
[17] = Drug metabolism in human liver microsomes assessed as CYP450-mediated 4-(pyridin-2-yl)-2-(pyrimidin-2-ylamino)thiazole-5-carboxylic acid formation measured at 60 mins; assay type: ADME; conditions: 1 h
[18] = Half life in CD-1 mouse at 2 mg/kg, iv; assay type: ADME, organism-based; conditions: in vivo
[19] = AUClast in CD-1 mouse at 10 mg/kg, po; assay type: ADME, organism-based; conditions: in vivo
[20] = Tmax in CD-1 mouse at 10 mg/kg, po; assay type: ADME, organism-based; conditions: in vivo
[21] = Half life in CD-1 mouse at 10 mg/kg, po; assay type: ADME, organism-based; conditions: in vivo
[22] = Oral bioavailability in CD-1 mouse at 10 mg/kg; assay type: ADME, organism-based; conditions: in vivo
[23] = Stability in mouse liver microsomes assessed as parent compound remaining measured at 60 mins; assay type: ADME; conditions: read-out: Stability
[24] = Stability in human liver microsomes assessed as parent compound remaining measured at 60 mins; assay type: ADME; conditions: read-out: Stability
[25] = Cmax in CD-1 mouse at 10 mg/kg, po; assay type: ADME, organism-based; parameters: dose 10 mg/kg, route oral; conditions: in vivo
[26] = Half life in CD-1 mouse at 1 mg/kg, iv; assay type: ADME, organism-based; conditions: in vivo
[27] = Drug metabolism in human liver microsomes assessed as CYP450-mediated 4-(pyrazin-2-yl)-2-(pyrimidin-2-ylamino)thiazole-5-carboxylic acid formation measured at 60 mins; assay type: ADME; conditions: 1 h
[28] = Drug uptake in CD-1 mouse liver at 2.5 mg/kg, po; assay type: ADME, organism-based; conditions: in vivo
[29] = Tmax in CD-1 mouse at 1 mg/kg, iv; assay type: ADME, organism-based; conditions: in vivo
[30] = Drug metabolism in mouse liver microsomes assessed as CYP450-mediated 4-(pyrazin-2-yl)-2-(pyrimidin-2-ylamino)thiazole-5-carboxylic acid formation measured at 60 mins; assay type: ADME; conditions: 1 h
[31] = Cytotoxicity against human hepatic cancer cells derived from HCC patient assessed as change in cell proliferation by measuring response rate at 1 uM after 48 hrs by Ki-67 immunostaining based assay; assay type: functional, Cancer cell lines
[32] = AUClast in CD-1 mouse at 1 mg/kg, iv; assay type: ADME, organism-based; conditions: in vivo
[33] = Cmax in CD-1 mouse at 2.5 mg/kg, po; assay type: ADME, organism-based; parameters: dose 2.5 mg/kg, route oral; conditions: in vivo
[34] = Tmax in CD-1 mouse at 2.5 mg/kg, po; assay type: ADME, organism-based; conditions: in vivo
[35] = Volume of distribution at steady state in CD-1 mouse at 1 mg/kg, iv; assay type: ADME, organism-based; conditions: in vivo, read-out: Vdss
[36] = AUClast in CD-1 mouse at 2.5 mg/kg, po; assay type: ADME, organism-based; conditions: in vivo
[37] = Oral bioavailability in CD-1 mouse at 2.5 mg/kg; assay type: ADME, organism-based; conditions: in vivo
[38] = Drug level in human liver microsomes treated with isopropyl 4-(pyrazin-2-yl)-2-(pyrimidin-2-ylamino)thiazole-5-carboxylate assessed as CYP450-mediated compound formation measured at 60 mins; assay type: ADME; conditions: 1 h
[39] = Drug level in mouse liver microsomes treated with isopropyl 4-(pyrazin-2-yl)-2-(pyrimidin-2-ylamino)thiazole-5-carboxylate assessed as CYP450-mediated compound formation measured at 60 mins; assay type: ADME; conditions: 1 h

SMILES	CC50 [3] [µM]	Selectivity Index [4]	Selectivity Index [5]	CC50 [6] [µM]	CC50 [7] [µM]	other results
O=C(O)c1sc(Nc2ncccn2)nc1-c1ccccn1						Drug metabolism [1]: Metabolite_Detected; Drug metabolism [2]: Metabolite_Detected
CCOC(=O)Cc1sc(Nc2ncccn2)nc1-c1ccccn1	1.39	35.94	35.94	50	50	
CC(C)OC(=O)c1sc(Nc2ncccn2)nc1-c1ccncn1	1.21	38.11	41.24	50	46.2	
CCOCc1sc(NCc2ncccn2)nc1-c1ccccn1	44.8	1.11		50	49.6	
CCOC(=O)c1sc(Nc2ncccn2)nc1-c1cnccn1	0.59	80.06	85.03	50	47.1	
CC(C)OC(=O)c1sc(Nc2ncccn2)nc1-c1ccccn1	0.41	123.39		49.8	50	
CCOC(=O)c1sc(Nc2ncccn2)nc1-c1ccncn1	1.6	25.46	24.97	40	40.8	
COCCOCN(c1ncccn1)c1nc(-c2cnccn2)c(C(=O)OC(C)C)s1	50		1	50	50	solubility [8]: Soluble; solubility [9]: Soluble; solubility [10]: Soluble
O=C(O)CCc1sc(Nc2ncccn2)nc1-c1ccccn1	14.1	1.87	1.25	17.7	26.4	
CC(C)OC(=O)c1sc(N(COP(=O)(OC(C)(C)C)OC(C)(C)C)c2ncccn2)nc1-c1cnccn1	0.98	51.28	51.28	50	50	solubility [8]: Soluble; solubility [9]: Soluble; solubility [10]: Soluble
c1ccc(-c2csc(Nc3ncccn3)n2)nc1	1.1	35.45	40.294			
CCOC(=O)Cc1sc(NCc2ncccn2)nc1-c1ccccn1	49.4	1.01	1.01	50	50	
CCOCc1sc(Nc2ncccn2)nc1-c1ccccn1	3.19	13.08	12.23	39	41.8	
CCOC(=O)c1sc(Nc2ncccn2)nc1-c1ccccn1	0.18	253.954	214.328			solubility [11]: 23.84 µM (≈ 7.8 µg/mL); Tmax [12]: 0 h; AUClast [13]: 224 ng·mL·h; solubility [14]: 112.84 µM (≈ 36.9 µg/mL); Vd [15]: 1.45 L/kg; Drug metabolism [16]: Metabolite_Detected; Drug metabolism [17]: Metabolite_Detected; half-life [18]: 14.4 min; AUClast [19]: 19.5 ng·mL·h; Tmax [20]: 34.8 min; half-life [21]: 115 min; bioavailability [22]: 10%; remaining at 1 h [23]: 43.3%; remaining at 1 h [24]: 63.1%; Cmax [25]: 94.1 ng/mL
c1ccc(-c2csc(NCc3ncccn3)n2)nc1	40.5	1.22		49.8	49.6	
CC(C)OC(=O)c1sc(Nc2ncccn2)nc1-c1cnccn1	0.11	471.7	471.7	50	50	half-life [26]: 26.4 min; solubility [11]: 5.2 µM (≈ 1.78 µg/mL); Drug metabolism [27]: Metabolite_Detected; Drug uptake [28]: 33 ng/g; Tmax [29]: 0 h; Drug metabolism [30]: Metabolite_Detected; solubility [14]: 6.35 µM (≈ 2.17 µg/mL); Activity [31]: 38%; AUClast [32]: 142 ng·mL·h; Cmax [33]: 48.7 ng/mL; Tmax [34]: 26.4 min; Vd [35]: 3.49 L/kg; remaining at 1 h [23]: 36.2%; AUClast [36]: 21.6 ng·mL·h; remaining at 1 h [24]: 70.9%; bioavailability [37]: 15.2%
CC(C)OC(=O)c1sc(N(COP(=O)(OC(C)(C)C)OC(C)(C)C)c2ncccn2)nc1-c1ccccn1	0.38	111.42	131.93	50	42.2	solubility [8]: Soluble; solubility [9]: Soluble; solubility [10]: Soluble
CC(C)OC(=O)OCN(c1ncccn1)c1nc(-c2cnccn2)c(C(=O)OC(C)C)s1	0.095	528.17	528.17	50	50	solubility [8]: Soluble; solubility [9]: Soluble; solubility [10]: Soluble
O=C(O)c1sc(Nc2ncccn2)nc1-c1cnccn1						Drug metabolism [38]: Metabolite_Detected; Drug metabolism [39]: Metabolite_Detected
CC(C)OC(=O)c1sc(Nc2ncccn2)nc1-c1ncccn1	1.62	30.96	30.96	50	50	
CCOC(=O)CCc1sc(Nc2ncccn2)nc1-c1ccccn1	2.05	5.1	4.93	10.1	10.5	
CCOC(=O)c1sc(Nc2ncccn2)nc1-c1ncccc1C	46.1	1.07		50	49.1	
CCOC(=O)c1sc(Nc2ncccn2)nc1-c1cc(C(F)(F)F)ccn1	0.17	90.32	56.24	9.34	15	
CCOC(=O)c1sc(NCc2ncccn2)nc1-c1ccccn1	50	1	1			

Reference: ChEMBL document CHEMBL3867464, “Novel substituted aminothiazoles as potent and selective anti-hepatocellular carcinoma agents” (Bioorg Med Chem Lett, 2016)
